Values of other authors, collected in patent publication US20210378997A1, “INHIBITOR OF RENAL FIBROSIS IN DIABETIC NEPHROPATHY” (KYOTO PREFECTURAL PUBLIC UNIVERSITY CORPORATION, priority 2018, published 2021).

Conditions: patients with diabetic nephropathy, 1-year medication

Cc1ccc(=O)n(-c2ccccc2)c1 [pirfenidone]
renal function (eGFR): significantly improved
